Experiments:
[1] = target: T1, BTK in Ramos human Burkitt lymphoma cells (Homo sapiens, UniProt Q06187); assay: BTK Ramos cellular assay (BTK occupancy); assay type: cell-based; details: concentration producing 50% occupancy of BTK, 1 hour incubation with compound
T1 construct: Compounds of this invention were assayed in Ramos human Burkitt lymphoma cells; endogenous in cells; host or cells: Ramos human Burkitt lymphoma cells
Method: BTK activity in Ramos cells, in the presence of a compound of the invention, can be measured by 3 different methods: 1) inhibition of autophosphorylation of BTK; 2) inhibition of phosphorylation of the immediate BTK surrogate PLCγ2; and 3) BTK occupancy. […] In this instance, BTK occupancy was chosen and is described below.
Compounds of this invention were assayed in Ramos human Burkitt lymphoma cells. Ramos cells were grown in suspension in T175 flasks, spun down, resuspended to a concentration of 2×10^6 cells per mL in serum-free media and incubated for 1 hour. Compound was added to Ramos cells to a final concentration of 500, 166.7, 55.6, 18.5, 6.2, 2.1, and 0.7 nM. Ramos cells were incubated with compound for 1 hour, washed with PBS and lysed in 1004 of BioRad lysis Buffer. Cell lysates were incubated with a biotinylated covalent probe (compound 1-215 disclosed in U.S. published application number 2010/0029610, incorporated by reference in its entirety) at a final concentration of 1 μM in a PBS, 0.05% Tween-20, 1% BSA solution for 1 h at room temperature. Standards and samples were transferred to a streptavidin-coated 96-well ELISA plate and mixed while shaking for 1 h at room temperature. The α-Btk antibody (BD 611116, 1:1000 dilution in PBS+0.05% Tween-20+0.5% BSA) was then added and incubated for 1 h at room temperature. After wash, goat α-mouse-HRP (1:5000 dilution in PBS+0.05% Tween-20+0.5% BSA) was added and incubated for 1 h at room temperature. The ELISA was developed with addition of tetramethyl benzidine (TMB) followed by Stop Solution and read at OD 450 nm. The standard curve (11.7-3000 pg/μL) was generated with human full-length recombinant Btk protein and plotted using a 4 parameter curve fit in Gen5 software. Uninhibited Btk detected from samples was normalized to μg total protein as determined by BCA protein analysis (Pierce Cat. 23225).
The results of this assay show the concentration of compound producing 50% occupancy of BTK. This level of occupancy empirically translates to a level of 50% inhibition of BTK activity (both as measured by autophosphorylation and by phosphorylation of PLCγ2). […] The compound numbers correspond to the compound numbers in the examples.

activated BTK enzyme = target: T2, activated BTK enzyme (Homo sapiens, UniProt Q06187); assay: Omnia assay for potency assessment against BTK; assay type: biochemical; details: BTK inhibition assay; [BTK]=5 nM, [ATP]=40 μM, [Y5-Sox]=10 μM
T2 construct: purchased Life Technologies PV3363
Source text: Omnia Assay Protocol for Potency Assessment Against BTK
The protocol below describes an assay to measure potency of compounds against the activated BTK enzyme. The mechanics of the assay platform are best described by the vendor (Life Technologies, Carlsbad, Calif.) on their website at the following URLs: www.lifetechnologies.com/us/en/home/life-science/drug-discovery/target-and-lead-identification-and-validation/kinasebiology/kinase-activity-assays/omnia-kinase-assays/omnia-kinase-principle.html and tools.lifetechnologies.com/content/sfs/manuals/omnia_kinase_assay_man.pdf
Briefly, 10× stocks of BTK (PV3363) from Life Technologies, 1.13×ATP (AS00lA) and Sox conjugated peptide substrates, Y5-Sox, (KZN305l) were prepared in 1× kinase reaction buffer consisting of 20 mM Tris, pH 7.5, 5 mM MgCl2, 1 mM EGTA, 5 mM (3-glycerophosphate, 5% glycerol (10× stock, KB002A) and 0.2 mM DTT (DS00lA). 5 μL of each enzyme were pre-incubated in a Corning (#3574) 384-well, white, non-binding surface microtiter plate (Corning, N.Y.) for 30 min. at room temperature with a 0.5 μL volume of 50% DMSO or serially diluted compounds prepared in 50% DMSO. Kinase reactions were started with the addition of […] of the ATP/Tyr-Sox peptide substrate Y5 mix and monitored every 71 seconds for 60 minutes at λex360/λem485 in a Synergy4 plate reader from BioTek (Winooski, Vt.). At the conclusion of each assay, progress curves from each well were examined for linear reaction kinetics and fit statistics (R2, 95% confidence interval, absolute sum of squares). Initial velocity (0 minutes to ˜30 minutes) from each reaction was determined from the slope of a plot of relative fluorescence units vs time (minutes) and then plotted against inhibitor concentration to estimate IC50 from log [Inhibitor] vs Response, Variable Slope model in GraphPad Prism from GraphPad Software (San Diego, Calif.).
Reagent conditions for the assay are:
[BTK]=5 nM, [ATP]=40 μM, [Y5-Sox]=10 μM (ATP KMapp˜36 μM).
The compound numbers correspond to the compound numbers in the examples.

T2 sequence (Q06187 whole entry): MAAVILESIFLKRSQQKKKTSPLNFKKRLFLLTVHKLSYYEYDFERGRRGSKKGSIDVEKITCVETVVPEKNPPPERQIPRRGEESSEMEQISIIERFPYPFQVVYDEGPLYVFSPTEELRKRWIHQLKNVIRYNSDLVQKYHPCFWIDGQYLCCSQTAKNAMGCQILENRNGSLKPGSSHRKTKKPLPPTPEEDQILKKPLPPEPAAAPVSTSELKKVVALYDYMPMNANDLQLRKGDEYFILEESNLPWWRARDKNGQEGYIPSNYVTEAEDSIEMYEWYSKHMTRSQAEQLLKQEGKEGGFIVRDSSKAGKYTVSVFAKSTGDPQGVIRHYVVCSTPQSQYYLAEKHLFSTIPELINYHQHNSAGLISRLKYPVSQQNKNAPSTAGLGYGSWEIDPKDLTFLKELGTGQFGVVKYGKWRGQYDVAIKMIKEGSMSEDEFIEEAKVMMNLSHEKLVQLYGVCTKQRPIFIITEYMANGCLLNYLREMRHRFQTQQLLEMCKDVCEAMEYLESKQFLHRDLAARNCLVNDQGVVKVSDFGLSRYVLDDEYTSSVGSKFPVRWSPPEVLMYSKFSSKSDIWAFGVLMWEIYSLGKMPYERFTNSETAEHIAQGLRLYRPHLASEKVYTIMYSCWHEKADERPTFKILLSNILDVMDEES
T1 sequence (Q06187 whole entry): as above

| EC50 [1] [nM] | IC50 (activated BTK enzyme) [nM] | Compound |
| --- | --- | --- |
| < 10 | < 10 | C=CC(=O)N1CCC[C@@H](Nc2nc(Nc3ccc4c(c3)CN(C(C)C)C4)ncc2F)C1 [Compound I-17, (R)-1-(3-((5-Fluoro-2-((2-isopropylisoindolin-5-yl)amino)pyrimidin-4-yl)amino)piperidin-1-yl)prop-2-en-1-one] |
| 10 to 100 | < 10 | C=CC(=O)N1CCC[C@@H](Nc2nc(Nc3ccc4c(c3)CN(C)CCC4)ncc2F)C1 [Compound I-55, (R)-1-(3-(5-Fluoro-2-(2-methyl-2,3,4,5-tetrahydro-1H-benzo[c]azepin-8-ylamino)pyrimidin-4-ylamino)piperidin-1-yl)prop-2-en-1-one] |
| < 10 | < 10 | C=CC(=O)N1CCC[C@@H](Nc2nc(Nc3ccc4c(c3)CCN(C(C)(C)C)C4)ncc2F)C1 [Compound I-45, (R)-1-(3-((2-((2-(tert-Butyl)-1,2,3,4-tetrahydroisoquinolin-6-yl)amino)-5-fluoropyrimidin-4-yl)amino)piperidin-1-yl)prop-2-en-1-one] |
| 101 to 1000 | < 10 | C=CC(=O)N1CCC[C@@H](Nc2nc(Nc3ccc4c(c3)CN(CC3CCNCC3)C4)ncc2F)C1 [Compound I-6, (R)-1-(3-((5-Fluoro-2-((2-(piperidin-4-ylmethyl)isoindolin-5-yl)amino)pyrimidin-4-yl)amino)piperidin-1-yl)prop-2-en-1-one] |
| 10 to 100 | < 10 | C=CC(=O)N1CCC[C@@H](Nc2nc(Nc3ccc4c(c3)CCNC4)ncc2F)C1 [Compound I-27, (R)-1-(3-((5-fluoro-2-((1,2,3,4-tetrahydroisoquinolin-6-yl)amino)pyrimidin-4-yl)amino)piperidin-1-yl)prop-2-en-1-one] |
| 101 to 1000 | < 10 | C=CC(=O)N1CCC[C@@H](Nc2nc(Nc3ccc4c(c3)C(=O)N(C)C4)ncc2F)C1 [Compound I-62] |
| 10 to 100 | < 10 | C=CC(=O)N1CCC[C@@H](Nc2nc(Nc3ccc4c(c3)CN(C3CCOCC3)C4)ncc2F)C1 [Compound I-12, (R)-1-(3-((5-Fluoro-2-((2-(tetrahydro-2H-pyran-4-yl)isoindolin-5-yl)amino)-pyrimidin-4-yl)amino)piperidin-1-yl)prop-2-en-1-one] |
| < 10 | < 10 | C=CC(=O)N1CCC[C@@H](Nc2nc(Nc3ccc4c(c3)CN(CC3CCOCC3)C4)ncc2F)C1 [Compound I-11, (R)-1-(3-(5-Fluoro-2-(2-((tetrahydro-2H-pyran-4-yl)methyl)isoindolin-5-ylamino)pyrimidin-4-ylamino)piperidin-1-yl)prop-2-en-1-one] |
| 10 to 100 | < 10 | C=CC(=O)N1CCC[C@@H](Nc2nc(Nc3ccc4c(c3)CN(C3CCN(C)CC3)C4)ncc2F)C1 [Compound I-7, (R)-1-(3-((5-Fluoro-2-((2-(1-methylpiperidin-4-yl)isoindolin-5-yl)amino)-pyrimidin-4-yl)amino)piperidin-1-yl)prop-2-en-1-one] |
| < 10 | < 10 | C=CC(=O)N1CCC[C@@H](Nc2nc(Nc3ccc4c(c3)CN(CC(N)=O)C4)ncc2F)C1 [Compound I-16] |
| < 10 | < 10 | C=CC(=O)N1CCC[C@@H](Nc2nc(Nc3ccc4c(c3)CCCN(C)C4)ncc2F)C1 [Compound I-38, (R)-1-(3-((5-Fluoro-2-((2-methyl-2,3,4,5-tetrahydro-1H-benzo[c]azepin-7-yl)amino)pyrimidin-4-yl)amino)piperidin-1-yl)prop-2-en-1-one] |
| < 10 | < 10 | C=CC(=O)N1CCC[C@@H](Nc2nc(Nc3ccc4c(c3)CN(C(C)(C)C)C4)ncc2F)C1 [Compound I-25, (R)-1-(3-((2-((2-(tert-butyl)isoindolin-5-yl)amino)-5-fluoropyrimidin-4-yl)amino)piperidin-1-yl)prop-2-en-1-one] |
| 101 to 1000 | < 10 | C=CC(=O)N1CCC[C@@H](Nc2nc(Nc3ccc4c(c3)CN(c3ccc(F)cc3)C4)ncc2F)C1 [Compound I-24, (R)-1-(3-((5-fluoro-2-((2-(4-fluorophenyl)isoindolin-5-yl)amino)pyrimidin-4-yl)amino)piperidin-1-yl)prop-2-en-1-one] |
| 101 to 1000 | < 10 | C=CC(=O)N1CCC[C@@H](Nc2nc(Nc3cc(F)c4c(c3)CN(C)C4)ncc2F)C1 [Compound I-37, (R)-1-(3-(5-Fluoro-2-(7-fluoro-2-methylisoindolin-5-ylamino)pyrimidin-4-ylamino)piperidin-1-yl)prop-2-en-1-one] |
| 10 to 100 | < 10 | C=CC(=O)N1CCC[C@@H](Nc2nc(Nc3ccc4c(c3)CCCN(C3CC3)C4)ncc2F)C1 [Compound I-51, (R)-1-(3-((2-((2-Cyclopropyl-2,3,4,5-tetrahydro-1H-benzo[c]azepin-7-yl)amino)-5-fluoropyrimidin-4-yl)amino)piperidin-1-yl)prop-2-en-1-one] |
| 10 to 100 | < 10 | C=CC(=O)N1CCC[C@@H](Nc2nc(Nc3ccc4c(c3)CN(CC(F)(F)F)C4)ncc2F)C1 [Compound I-22, (R)-1-(3-((5-fluoro-2-((2-(2,2,2-trifluoroethyl)isoindolin-5-yl)amino)pyrimidin-4-yl)amino)piperidin-1-yl)prop-2-en-1-one] |
| < 10 | < 10 | C=CC(=O)N1CCC[C@@H](Nc2nc(Nc3ccc4c(c3)CNCC4)ncc2F)C1 [Compound I-33, (R)-1-(3-(5-fluoro-2-(1,2,3,4-tetrahydroisoquinolin-7-ylamino)pyrimidin-4-ylamino)-piperidin-1-yl)prop-2-en-1-one] |
| 10 to 100 | < 10 | C=CC(=O)N1CCC[C@@H](Nc2nc(Nc3ccc4c(c3)CCNCC4)ncc2F)C1 [Compound I-57, (R)-1-(3-(5-Fluoro-2-(2,3,4,5-tetrahydro-1H-benzo[d]azepin-7-ylamino)pyrimidin-4-ylamino)piperidin-1-yl)prop-2-en-1-one] |
| 10 to 100 | < 10 | C=CC(=O)N1CCC[C@@H](Nc2nc(Nc3ccc4c(c3)CCN(C3CC3)CC4)ncc2F)C1 [Compound I-60, (R)-1-(3-(2-(3-Cyclopropyl-2,3,4,5-tetrahydro-1H-benzo[d]azepin-7-ylamino)-5-fluoropyrimidin-4-ylamino)piperidin-1-yl)prop-2-en-1-one] |
| < 10 | < 10 | C=CC(=O)N1CCC[C@@H](Nc2nc(Nc3ccc4c(c3)CCN(CC3CC3)C4)ncc2F)C1 [Compound I-43, (R)-1-(3-((2-((2-(cyclopropylmethyl)-1,2,3,4-tetrahydroisoquinolin-6-yl)amino)-5-fluoropyrimidin-4-yl)amino)piperidin-1-yl)prop-2-en-1-one] |
| < 10 | < 10 | C=CC(=O)N1CCC[C@@H](Nc2nc(Nc3ccc4c(c3)CNC4)ncc2C(F)(F)F)C1 [Compound I-65, (R)-1-(3-((2-(Isoindolin-5-ylamino)-5-(trifluoromethyl)pyrimidin-4-yl)amino)piperidin-1-yl)prop-2-en-1-one] |
